{
  "source": "patent US5877165A",
  "about": "“Boronated porhyrins and methods for their use” (priority 1997, dated 1999)",
  "key": {"EMT-6 mammary tumors": {"system": "EMT-6 mammary tumors", "test": "Experiment II: boron concentrations in tissues, mice bearing EMT-6 tumors (Table 9)", "format": "in vivo, BALB/c mice", "details": "90 hrs after last ip injection; NiDPE 78 (6 ip), VCDP 245 μg/gbw (12 ip)", "description": "Lipophilic porphyrins 1, 2, 4, 5, and 6 were injected as emulsions in either 3% or 9% CRM and either 6% or 18% PRG with saline as previously described in Example 2 above. Water soluble porphyrins 3 and 7 were dissolved in saline. BPA was solubilized as a fructose complex.\nFemale BALB/c mice (from Taconic Farms, Germantown, N.Y.) (20-25 g) were implanted with either KHJJ or EMT-6 tumors according to the procedure described in Example 3A above.\nUnder deep halothane anesthesia leading to euthanasia, right ventricular blood was collected in Microtainer (Becton-Dickinson, Rutherford, N.J.) tubes containing EDTA for hematological analyses and boron assays of whole blood and in Microtainer™ tubes containing lithium heparin for chemical analyses and enzyme assays of blood plasma. Tumor, brain, fat, muscle, and liver tissues were sampled at necropsy for boron analyses.\nHematological, chemical and enzymatic tests were carried out as described in Example 3 above. Nonparametric statistical analyses were carried out using the Wilcoxon Two-Sample Test in accordance with procedures described in Slatkin, D.N., 1995. Boron analyses were conducted in accordance with the procedure described in Example 3 above. Fat and liver tissues were assayed for ^10 B by prompt-gamma spectroscopy as described in Fairchild, et al., 1986. These measurements were multiplied by 5.0 to give total boron concentrations due to the use of boron of natural isotope abundance in the syntheses of all boronated porphyrins reported."}, "[1]": {"details": "cited from earlier work"}, "[2]": {"test": "Overall ranking of boronated porphyrins for BNCT guided by biodistribution and toxicity tests in mice (Table 11)", "details": "rank; higher numerical value = better performance", "description": "The higher the numerical value, the better the performance of that porphyrin for that property. […] Although VCDP was able to deliver therapeutic amounts of boron to tumor, such side effects such as thrombocytopenia, which was induced within 3 hours after injections, weight loss, and the altered hepatic enzymes were serious enough to rank VCDP considerably behind the TCP's and the TCP-H's (Miura et al., 1992). In addition, the 80-hour drug administration period and the 90-hour blood clearance period are of great inconvenience. Moreover, this 4-day difference between the VCDP and the TCP (or TCP-H) dose and clearance schedules would translate into a 4-day greater delay between initiation of drug administration and neutron irradiation which would allow greater tumor growth to occur.\n[…]\n[…]"}, "EMT-6 tumors": {"system": "EMT-6 tumors", "test": "Boron concentrations arithmetically normalized to constant dose, mice bearing EMT-6 tumors (FIG. 3)", "format": "in vivo, BALB/c mice", "details": "normalized porphyrin dose (160 μg porphyrin/gbw)", "description": "Since the porphyrins were not given at the same dose, the boron concentrations in tumor, blood, and brain were arithmetically normalized to a total dose of 160 μg porphyrin/gbw for comparison in FIG. 3. Since each porphyrin has a different percentage of boron per unit mass, tumor boron concentrations were also arithmetically normalized to a total dose of 36.5 μg B/gbw, also shown in FIG. 3."}},
  "data": [
    {"substance": "3,8-divinyl-nido-carboranyldeuteroporphyrin [VCDP]", "values": [
      {"measurement": "Boron concentration, Blood", "setting": "EMT-6 mammary tumors", "result": "7 (4.3-13) μB/g"},
      {"measurement": "Boron concentration, Brain", "setting": "EMT-6 mammary tumors", "result": "8.1 (4.9-16.2) μB/g"},
      {"measurement": "Boron concentration, Tumor", "setting": "EMT-6 mammary tumors", "result": "53 (30-106) μB/g"},
      {"measurement": "toxicity vs control, in words", "setting": "[1]; 130 μg VCDP/gbw over 32 hr, 90 hrs after last injection (Miura et al., 1992)", "result": "no differences from control groups given a bicarbonate solution, although CPK was slightly depressed"},
      {"measurement": "time to thrombocytopenia after injections", "setting": "[1]; Miura et al., 1992", "result": "≤ 3", "unit": "h"},
      {"measurement": "dose per injection that keeps mortality below 10%", "setting": "[1]; per injection, mice", "result": 22, "unit": "μg VCDP/gbw"},
      {"measurement": "Drug tolerance/deliverable boron (ranking)", "setting": "[2]", "result": 2},
      {"measurement": "Lipophilicity (ranking)", "setting": "[2]", "result": 0},
      {"measurement": "Tumor uptake (normalized) (ranking)", "setting": "[2]", "result": 3},
      {"measurement": "Tumor:Blood (ranking)", "setting": "[2]", "result": 2},
      {"measurement": "tumor boron uptake, normalized", "setting": "EMT-6 tumors", "result": 38}
    ]}
  ]
}
